Measurements: patent US20060241172A1, “Benzodioxane and benzodioxolane derivatives and uses thereof” (Wyeth, priority 2005, published 2006)
Counter-ions that a name gives are not always drawn.

SMILES	melting point
CNCC1COc2cccc(-c3cccc(C)c3C)c2O1 (stereo not shown) (as salt: fumarate) [Compound I-25, {[8-(2,3-Dimethylphenyl)-2,3-dihydro-1,4-benzodioxin-2-yl]methyl}methylamine]	194 to 195 °C
CNCC1COc2cccc(-c3cc(C)ccc3C)c2O1 (stereo not shown) (as salt: fumarate) [Compound I-26, {[8-(2,5-Dimethylphenyl)-2,3-dihydro-1,4-benzodioxin-2-yl]methyl}methylamine]	174 to 175 °C
CNCC1COc2cccc(-c3cccc(F)c3F)c2O1 (stereo not shown) (as salt: fumarate) [Compound I-27, {[8-(2,3-Difluorophenyl)-2,3-dihydro-1,4-benzodioxin-2-yl]methyl}methylamine]	181 to 182 °C
CNCC1COc2cccc(-c3ccc(F)cc3F)c2O1 (stereo not shown) (as salt: fumarate) [Compound I-28, {[8-(2,4-Difluorophenyl)-2,3-dihydro-1,4-benzodioxin-2-yl]methyl}methylamine]	174 to 175 °C
CNCC1COc2cccc(-c3cc(F)ccc3F)c2O1 (stereo not shown) (as salt: fumarate) [Compound I-29, {[8-(2,5-Difluorophenyl)-2,3-dihydro-1,4-benzodioxin-2-yl]methyl}methylamine]	193 to 194 °C
CNCC1COc2cccc(-c3cccc(OC)c3OC)c2O1 (stereo not shown) (as salt: fumarate) [Compound I-30, {[8-(2,3-Dimethoxyphenyl)-2,3-dihydro-1,4-benzodioxin-2-yl]methyl}methylamine]	159 to 160 °C
CNCC1COc2cccc(-c3cc(Cl)ccc3OC)c2O1 (stereo not shown) (as salt: fumarate) [Compound I-31, {[8-(5-Chloro-2-methoxyphenyl)-2,3-dihydro-1,4-benzodioxin-2-yl]methyl}methylamine]	172 to 173 °C
CCNCC1COc2cccc(-c3ccc(Cl)cc3Cl)c2O1 (stereo not shown) (as salt: fumarate) [Compound I-33, N-{[8-(2,4-Dichlorophenyl)-2,3-dihydro-1,4-benzodioxin-2-yl]methyl}ethanamine]	179 to 180 °C
CCCNCC1COc2cccc(-c3ccc(Cl)cc3Cl)c2O1 (stereo not shown) (as salt: fumarate) [Compound I-35, N-{[8-(2,4-Dichlorophenyl)-2,3-dihydro-1,4-benzodioxin-2-yl]methyl}propan-1-amine]	178 to 179 °C
CC(C)NCC1COc2cccc(-c3ccccc3Cl)c2O1 (stereo not shown) (as salt: fumarate) [Compound I-36, N-{[8-(2-Chlorophenyl)-2,3-dihydro-1,4-benzodioxin-2-yl]methyl}propan-2-amine]	199 to 200 °C
CC(C)NCC1COc2cccc(-c3ccc(Cl)cc3Cl)c2O1 (stereo not shown) (as salt: fumarate) [Compound I-37, N-{[8-(2,4-Dichlorophenyl)-2,3-dihydro-1,4-benzodioxin-2-yl]methyl}propan-2-amine]	222 to 223 °C
CN(C)CC1COc2cccc(-c3ccccc3Cl)c2O1 (stereo not shown) (as salt: fumarate) [Compound I-38, {[8-(2-Chlorophenyl)-2,3-dihydro-1,4-benzodioxin-2-yl]methyl}dimethylamine]	196 to 197 °C
CN(C)CC1COc2cccc(-c3ccc(Cl)cc3Cl)c2O1 (stereo not shown) (as salt: fumarate) [Compound I-39, {[8-(2,4-Dichlorophenyl)-2,3-dihydro-1,4-benzodioxin-2-yl]methyl}dimethylamine]	232 to 233 °C
C=CCNCC1COc2cccc(-c3ccc(Cl)cc3Cl)c2O1 (stereo not shown) (as salt: fumarate) [Compound I-40, N-{[8-(2,4-Dichlorophenyl)-2,3-dihydro-1,4-benzodioxin-2-yl]methyl}prop-2-en-1-amine]	167 to 168 °C
Clc1ccccc1-c1cccc2c1OC(CNCC1CC1)CO2 (stereo not shown) (as salt: fumarate) [Compound I-41, {[8-(2-Chlorophenyl)-2,3-dihydro-1,4-benzodioxin-2-yl]methyl}(cyclopropylmethyl)-amine]	138 to 140 °C
Clc1ccc(-c2cccc3c2OC(CNCC2CC2)CO3)c(Cl)c1 (stereo not shown) (as salt: fumarate) [Compound I-42, (Cyclopropylmethyl) {[8-(2,4-dichlorophenyl)-2,3-dihydro-1,4-benzodioxin-2-yl]methyl}amine]	155 to 156 °C
Clc1ccccc1-c1cccc2c1OC(CNC1CC1)CO2 (stereo not shown) (as salt: fumarate) [Compound I-43, N-{[8-(2-Chlorophenyl)-2,3-dihydro-1,4-benzodioxin-2yl]methyl}cyclopropanamine]	148 to 149 °C
Clc1ccc(-c2cccc3c2OC(CNC2CC2)CO3)c(Cl)c1 (stereo not shown) (as salt: fumarate) [Compound I-44, N-{[8-(2,4-Dichlorophenyl)-2,3-dihydro-1,4-benzodioxin-2-yl]methyl}cyclopropanamine]	181 to 182 °C
Clc1ccc(-c2cccc3c2OC(CNC2CCC2)CO3)c(Cl)c1 (stereo not shown) (as salt: fumarate) [Compound I-45, N-{[8-(2,4-Dichlorophenyl)-2,3-dihydro-1,4-benzodioxin-2-yl]methyl}cyclobutanamine]	204 to 205 °C

SMILES	melting point
C[C@]1(CN)COc2cccc(-c3ccccc3)c2O1 (as salt: fumarate) [Compound I-48, {[(2S)-2-Methyl-8-phenyl-2,3-dihydro-1,4-benzodioxin-2-yl]methyl}amine]	130 to 133 °C
C[C@]1(CN)COc2cccc(-c3ccccc3Cl)c2O1 (as salt: fumarate) [Compound I-49, {[(2S)-8-(2-Chlorophenyl)-2-methyl-2,3-dihydro-1,4-benzodioxin-2-yl]methyl}amine]	149 to 152 °C
C[C@]1(CN)COc2cccc(-c3cccc(Cl)c3)c2O1 (as salt: fumarate) [Compound I-50, {[(2S)-8-(3-Chlorophenyl)-2-methyl-2,3-dihydro-1,4-benzodioxin-2-yl]methyl}amine]	110 to 113 °C
C[C@]1(CN)COc2cccc(-c3ccc(Cl)cc3)c2O1 (as salt: fumarate) [Compound I-51, {[(2S)-8-(4-Chlorophenyl)-2-methyl-2,3-dihydro-1,4-benzodioxin-2-yl]methyl}amine]	155 to 158 °C
COc1ccccc1-c1cccc2c1O[C@@](C)(CN)CO2 (as salt: fumarate) [Compound I-52, {[(2S)-8-(2-Methoxyphenyl)-2-methyl-2,3-dihydro-1,4-benzodioxin-2-yl]methyl}amine]	128 to 131 °C
C[C@]1(CN)COc2cccc(-c3ccsc3)c2O1 (as salt: fumarate) [Compound I-53, {[(2S)-2-Methyl-8-thien-3-yl-2,3-dihydro-1,4-benzodioxin-2-yl]methyl}amine]	158 to 161 °C
NC[C@H]1COc2cccc(-c3ccccc3Cl)c2O1 (as salt: fumarate) [Compound I-56, 1-[(2S)-8-(2-CHLOROPHENYL)-2,3-DIHYDRO-1,4-BENZODIOXIN-2-YL]METHANAMINE]	200 to 201 °C
NC[C@H]1COc2cccc(-c3ccccc3C(F)(F)F)c2O1 (as salt: fumarate) [Compound I-57, 1-{(2S)-8-[2-(trifluoromethyl)phenyl]-2,3-dihydro-1,4-benzodioxin-2-yl}methanamine]	205 to 206 °C
NC[C@H]1COc2cc(Cl)cc(-c3ccccc3Cl)c2O1 (as salt: hydrochloride) [Compound I-58, (2S)-[6-Chloro-8-(2-chloro-phenyl)-2,3-dihydro-benzo[1,4]dioxin-2-yl]-methylamine]	228 to 230 °C
NC[C@H]1COc2cc(Cl)cc(-c3ccccc3F)c2O1 (as salt: hydrochloride) [Compound I-59, (2S)-[6-Chloro-8-(2-fluoro-phenyl)-2,3-dihydro-benzo[1,4]dioxin-2-yl]-methylamine]	176 to 178 °C
Cc1ccccc1-c1cc(Cl)cc2c1O[C@@H](CN)CO2 (as salt: hydrochloride) [Compound I-60, (2S)-[6-Chloro-8-(2-methyl-phenyl)-2,3-dihydro-benzo[1,4]dioxin-2-yl]-methylamine]	> 245 °C
COc1ccccc1-c1cc(Cl)cc2c1O[C@@H](CN)CO2 (as salt: hydrochloride) [Compound I-61, (2S)-[6-Chloro-8-(2-methoxy-phenyl)-2,3-dihydro-benzo[1,4]dioxin-2-yl]-methylamine]	188 to 189 °C
NC[C@H]1COc2cc(Cl)cc(-c3ccccc3C(F)(F)F)c2O1 (as salt: hydrochloride) [Compound I-62, (2S)-[6-Chloro-8-(2-trifluoromethyl-phenyl)-2,3-dihydro-benzo[1,4]dioxin-2-yl]-methylamine]	231 to 233 °C
COc1cccc(-c2cc(Cl)cc3c2O[C@@H](CN)CO3)c1OC (as salt: hydrochloride) [Compound I-63, (2S)-[6-Chloro-8-(2,3-dimethoxy-phenyl)-2,3-dihydro-benzo[1,4]dioxin-2-yl]-methyl amine]	197 to 199 °C
NC[C@H]1COc2cc(Cl)cc(-c3ccc(Cl)cc3Cl)c2O1 (as salt: hydrochloride) [Compound I-64, (2S)-[6-Chloro-8-(2,4-dichloro-phenyl)-2,3-dihydro-benzo[1,4]dioxin-2-yl]-methyl amine]	140 °C
Cc1cc(Cl)ccc1-c1cc(Cl)cc2c1O[C@@H](CN)CO2 (as salt: hydrochloride) [Compound I-65, (2S)-[6-Chloro-8-(4-chloro-2-methyl-phenyl)-2,3-dihydro-benzo[1,4]dioxin-2-yl]-methylamine]	110 °C
NC[C@H]1COc2cc(Cl)cc(-c3cc(Cl)ccc3Cl)c2O1 (as salt: hydrochloride) [Compound I-67, (2S)-[6-Chloro-8-(2,5-dichloro-phenyl)-2,3-dihydro-benzo[1,4]dioxin-2-yl]-methyl amine]	205 to 207 °C
COc1ccc(Cl)cc1-c1cc(Cl)cc2c1O[C@@H](CN)CO2 (as salt: hydrochloride) [Compound I-68, (2S)-[6-Chloro-8-(5-chloro-2-methoxy-phenyl)-2,3-dihydro-benzo[1,4]dioxin-2-yl]-methylamine]	230 to 232 °C
